The conditions of data set [1]: cited from earlier work.
For data set [2] the following is noted: cited from earlier work. This is another data set of the same source.
The nature of data set [3]: Solubility of the product (qualitative). In kind it is physicochemical.
Data set [4] can be described thus: Aqueous solution: fluorescence and colour on addition of aqueous 1 mM ZnCl2. In kind it is physicochemical. The conditions noted are these: for colour of the aqueous solution / fluorescence of the solution upon irradiation: upon addition of aqueous 1 mM ZnCl2; for fluorescence of the aqueous solution: without Zn.
Data set [5] is described as follows: Fluorescent spectra in the presence of various Zn ion concentration (Zn-titration). In kind it is physicochemical. The conditions noted are these: 0.1 M HEPES buffer pH 7.4. The protocol: (§1) Fluorescent spectra were recorded on an FLS920 Fluorescence Spectrometer from Edinburgh Instrument. A quartz cuvette with 3 mL volume and 1 cm length was used. Absorption spectra were recorded on a ThermoFisher NanoDrop 1000 Spectrophotometer. The two-photon measurements were performed on the custom Femtonics Dobos Dual system using a water immersion lens, a Mai Tai High-Power laser operated at 50 mW. For processing the images, ImageJ software was used.
FIG. 1. Fluorescence spectra of compound 28 pH 7.4 (0.1 M) HEPES buffer containing different amounts of Zn^2+. Values are not normalized, spectra were recorded at the maximum excitation wavelength.
FIG. 5. Fluorescence spectra of the compound of 29 in 0.1 M HEPES buffer (pH 7.4) containing different amounts of Zn^2+.
FIG. 7. Fluorescence spectra of the compound of 31 in pH 7.4 (0.1 M) HEPES buffer containing different amounts of Zn^2+.
FIG. 9. Fluorescence spectra of the compound of 30 in pH 7.4 (0.1 M) HEPES buffer containing different amounts of Zn^2+ ion.

Data set [6] can be described thus: UV-VIS absorption spectra. The data set is classed as physicochemical. The protocol: as §1
A short description of data set [7]: Ion screening (fluorescence), Zn2+. The conditions noted are these: for selectivity towards Zn ion: vs Ca2+, Mg2+, Na+, K+, Fe3+, Cu2+, Sn2+, Cd2+, Pb2+. In kind it is physicochemical.
Data set [8] in a line: Ion screening (fluorescence), Cd2+. The data set is classed as physicochemical.
Data set [9] can be described thus: Ion screening (fluorescence), Sn2+. In kind it is physicochemical.
Data set [10] can be described thus: Ion screening (fluorescence), Ca2+. The data set is classed as physicochemical.

Each structure is given as a SMILES string. Entries after “also recorded” stand apart in the source; their conditions may differ.

Results on 13 compounds are retold here after US20240010913A1, “RED FLUORESCENT SENSOR COMPOUNDS FOR THE DETECTION OF METAL IONS” (FEMTONICS KFT., priority 2020, published 2024).

For `Oc1cccc2cccnc12` [8-hydroxyquinoline], the specificity / selectivity result in data set [1] is reported as “low”.
In the case of `Cc1cc(/C=N/c2cccc3cccnc23)c(O)c(CO)c1` [HQMP], in data set [2], the solubility / water-solubility result is “Poor water-solubility”.
For `O=C(CNNC(=O)c1ccccc1)Nc1cccc2cccnc12` [QLNPY], the quenching entry in [1] (by PPi and S^2−) was “quenched by PPi”. For the same compound, in data set [1], the specificity / selectivity result is reported as “not selective for Cd^2+”.
For the compound `COc1cc(NS(=O)(=O)c2ccc(C)cc2)c2ncccc2c1` [TSQ, 6-methoxy-(8-p-toluenesulfonamido)quinoline], in [2], the solubility / water-solubility result is listed as “poor water-”.
`CCOC(=O)COc1cc(NS(=O)(=O)c2ccc(C)cc2)c2nc(C)ccc2c1` [Zinquin Ester]: the solubility / water-solubility entry in data set [2] is reported as “weak solubility; also recorded: excitation, poor water-solubility”.
With `O=C1NC(Nc2ccccc2)=N/C1=C\c1ccc2cccc(O)c2n1` [compound 28, (Z)-5-((8-hydroxyquinolin-2-yl)methylene)-2-(phenylamino)-3,5-dihydro-4H-imidazol-4-one], in data set [3], the “solubility in DMSO” value was “Soluble”, the solubility in alcohols entry is “Soluble” and the solubility in water result is “moderately soluble”. Moreover, in [4], the “colour of the aqueous solution” value is “colour changes to yellow”, the “fluorescence of the solution upon irradiation” value is reported as “emits fluorescence” and the “fluorescence of the aqueous solution” value is “emits no fluorescence”. In addition, the maximum emitted wavelength result in data set [5] is on record as “around 545 nm”. Further, in data set [6], the “UV spectra maximum wavelength” value is given as “around 472 nm”. In addition, in [6] (between UV maximum and emission maximum), the Stokes shift is 73 nm.
On to `CN(C)c1cccc2ccc(/C=C3\N=C(Nc4ccccc4)NC3=O)nc12` [compound 29, (Z)-5-((8-(dimethylamino)quinolin-2-yl)methylene)-2-(phenylamino)-3,5-dihydro-4H-imidazol-4-one], for which, in data set [7], the Zn/Ca fluorescence ratio result is given as “excellent”, the “fluorescence in ion screening” value was “strong green fluorescence” and the “selectivity towards Zn ion” value was “strong selectivity”. For the same compound, in data set [3], the “solubility in DMSO” value was “Soluble”, the solubility in alcohols entry is “Soluble” and the solubility in water result was “Soluble”. In [4], the “colour of the aqueous solution” value is reported as “colour changes to greenish”, the “fluorescence of the solution upon irradiation” value is “emits fluorescence” and the “fluorescence of the aqueous solution” value is reported as “emits no fluorescence”. Besides, the “UV spectra extends over” value in data set [6] is recorded as “over 500 nm”.
In the case of `CN(C)CCN(C)c1cccc2ccc(/C=C3\N=C(Nc4ccccc4)NC3=O)nc12` [compound 30, (Z)-5-((8-((2-(dimethylamino)ethyl)(methyl)amino)quinolin-2-yl)methylene)-2-(phenylamino)-3,5-dihydro-4H-imidazol-4-one], in data set [7], the “fluorescence in ion screening” value is reported as “strong green fluorescence”, the “fluorescence intensity in ion screening” value is “lower intensity” and the “selectivity towards Zn ion” value is reported as “strong selectivity”. Further, in [3], the “solubility in DMSO” value is recorded as “Soluble”, the solubility in alcohols entry was “Soluble” and the solubility in water entry was “moderately soluble”. In data set [4], the “colour of the aqueous solution” value was “colour gets brighter”, the “fluorescence of the solution upon irradiation” value is recorded as “emits fluorescence” and the “fluorescence of the aqueous solution” value was “emits no fluorescence”. Moreover, the maximum emitted wavelength entry in data set [5] is on record as “around 555 nm”. In [6], the “UV spectra extends over” value is “over 500 nm” and the “UV spectra maximum wavelength” value was “around 476 nm”.
`CN(Cc1ccccn1)c1cccc2ccc(/C=C3\N=C(Nc4ccccc4)NC3=O)nc12` [compound 31, (Z)-5-((8-(methyl(pyridin-2-ylmethyl)amino)quinolin-2-yl)methylene)-2-(phenylamino)-3,5-dihydro-4H-imidazol-4-one]: in [7], the Zn/Ca fluorescence ratio entry was “good”, the “fluorescence in ion screening” value is recorded as “strong green fluorescence” and the “selectivity towards Zn ion” value is on record as “good selectivity”. In addition, the “selectivity against Cd2+” value in data set [8] was “weak”. In addition, in data set [3], the “solubility in DMSO” value is “Soluble”, the solubility in alcohols result is given as “Soluble” and the solubility in water result is given as “moderately soluble”. For the same compound, in data set [4], the “colour of the aqueous solution” value is listed as “colour changes to yellow”, the “fluorescence of the solution upon irradiation” value was “emits fluorescence” and the “fluorescence of the aqueous solution” value is recorded as “emits no fluorescence”. For the same compound, the maximum emitted wavelength result in data set [5] is “around 545 nm”. Also, in [6], the “UV spectra extends over” value is “over 500 nm” and the “UV spectra maximum wavelength” value is “around 481 nm”.
Consider `COc1cccc2ccc(/C=C3\N=C(Nc4ccccc4)NC3=O)nc12` [compound 32, (Z)-5-((8-methoxyquinolin-2-yl)methylene)-2-(phenylamino)-3,5-dihydro-4H-imidazol-4-onen], for which, in data set [3], the “solubility in DMSO” value is given as “Soluble”, the solubility in alcohols entry was “Soluble” and the solubility in water entry is on record as “moderately soluble”. In addition, in data set [4], the “colour of the aqueous solution” value is on record as “colour changes to green”, the “fluorescence of the solution upon irradiation” value is “emits fluorescence” and the “fluorescence of the aqueous solution” value is recorded as “emits no fluorescence”.
As for `O=C(O)CN(CC(=O)O)c1cccc2ccc(/C=C3\N=C(Nc4ccccc4)NC3=O)nc12` [compound 33, (Z)-2,2′-((2-((5-oxo-2-(phenylamino)-1,5-dihydro-4H-imidazol-4-ylidene)methyl)quinolin-8-yl)azanediyl)diacetic acid], the “turn on by Sn2+” value in data set [9] is on record as “turn on the sensor”. Also, the “turn on in the presence of Zn2+” value in [7] is on record as “does not turn on”. In addition, in data set [10], the “fluorescence with Ca2+ ion” value is given as “increased fluorescence intensity”.
Turning to `O=C1NC(Nc2ccccc2)=N/C1=C\c1ccc2ccc3cccnc3c2n1` [compound 34, (Z)-5-((1,10-phenanthrolin-2-yl)methylene)-2-(phenylamino)-3,5-dihydro-4H-imidazol-4-one], in data set [3], the “solubility in DMSO” value is listed as “soluble”; the “solubility in THF” value is given as “Moderately soluble”; the “solubility in the mixture of DMSO and water” value was “soluble”.
`O=C1N=C(Nc2ccccc2)N/C1=C\c1ccc2ccc3ccc(/C=C4\NC(Nc5ccccc5)=NC4=O)nc3c2n1` [compound 35, (5Z,5′Z)-5,5′-((1,10-phenanthroline-2,9-diyl)bis(methanylylidene))bis(2-(phenylamino)-1,5-dihydro-4H-imidazol-4-one)]: in data set [3], the “solubility in DMSO” value is recorded as “soluble”; the “solubility in THF” value was “Moderately soluble”; the “solubility in the mixture of DMSO and water” value was “soluble”.
